ChEMBL document CHEMBL3779770, “Synthesis, biological evaluation and molecular docking study of some novel indole and pyridine based 1,3,4-oxadiazole derivatives as potential antitubercular agents” (Bioorg Med Chem Lett, 2016)
≈ marks a conversion by molar mass, not a printed value.

Columns and labels:
[1] = test system: Mycobacterium tuberculosis; assay: Antitubercular activity against active state Mycobacterium tuberculosis H37Ra assessed as viable cells after 8 days by XTT reduction menadione assay; format: functional, organism-based; conditions: 192 h
Pseudomonas fluorescens = assay: Antibacterial activity against Pseudomonas fluorescens NCIM 2036 after 8 hrs; format: functional, organism-based; conditions: NCIM 2036, 8 h
Staphylococcus aureus = assay: Antibacterial activity against Staphylococcus aureus NCIM 2010 after 12 hrs; format: functional, organism-based; conditions: NCIM 2010, 12 h
HeLa = assay: (§1) Cytotoxicity against human HeLa cells after 72 hrs by MTT assay; format: cell-based; conditions: hela, 72 h
[2] = as §1; format: cell-based; conditions: HeLa cells
A549 = assay: (§2) Cytotoxicity against human A549 cells after 48 hrs by MTT assay; format: cell-based; conditions: a549, 48 h
[3] = as §2; format: cell-based; conditions: A549 cells
Bacillus subtilis = assay: Antibacterial activity against Bacillus subtilis NCIM 2079 after 12 hrs; format: functional, organism-based; conditions: NCIM 2079, 12 h
Escherichia coli = assay: Antibacterial activity against Escherichia coli NCIM 2688 after 8 hrs; format: functional, organism-based; conditions: NCIM 2688, 8 h
[4] = test system: Mycobacterium tuberculosis; assay: Antitubercular activity against dormant state Mycobacterium tuberculosis H37Ra assessed as viable cells after 12 days by XTT reduction menadione assay; format: functional, organism-based; conditions: 288 h
[5] = Cytotoxicity against human PANC1 cells after 48 hrs by MTT assay; format: cell-based, PANC-1; conditions: for GI50 at 48 h: PANC1 cells; for GI90: panc-1, 48 h

Compound	IC50 [1] [µg/mL]	MIC [1] [µg/mL]	IC50 (Pseudomonas fluorescens) [µg/mL]	MIC (Pseudomonas fluorescens) [µg/mL]	IC50 (Staphylococcus aureus) [µg/mL]	MIC (Staphylococcus aureus) [µg/mL]	GI90 (HeLa) [µg/mL]	GI50 at 72 h [2] [µg/mL]	GI90 (A549) [µg/mL]	GI50 at 48 h [3] [µg/mL]	IC50 (Bacillus subtilis) [µg/mL]	MIC (Bacillus subtilis) [µg/mL]	IC50 (Escherichia coli) [µg/mL]	MIC (Escherichia coli) [µg/mL]	IC50 [4] [µg/mL]	MIC [4] [µg/mL]	GI50 at 48 h [5] [µg/mL]	GI90 [5] [µg/mL]
O=C(/C=C\c1cccc(Cl)c1Cl)N1N=C(c2ccncc2)OC1c1c[nH]c2ccccc12 (stereo not given)	> 30	> 30	6.79 (≈ 14.7 µM)	198 (≈ 427 µM)	7.59 (≈ 16.4 µM)	162 (≈ 349 µM)	> 30	> 30	> 30	> 30	8.39 (≈ 18.1 µM)	168 (≈ 362 µM)	5.99 (≈ 12.9 µM)	159 (≈ 343 µM)	> 30	> 30	> 30	> 30
O=C(/C=C\c1ccccc1)N1N=C(c2ccncc2)OC1c1c[nH]c2ccccc12 (stereo not given)	28.7 (≈ 72.8 µM)	> 30	11.1 (≈ 28 µM)	51.3 (≈ 130 µM)	11.9 (≈ 30.1 µM)	42.2 (≈ 107 µM)	> 30	> 30	> 30	> 30	12.7 (≈ 32.1 µM)	45.4 (≈ 115 µM)	10.3 (≈ 26 µM)	50.5 (≈ 128 µM)	> 30	> 30	> 30	> 30
O=C(/C=C\c1ccc(Cl)cc1)N1N=C(c2ccncc2)OC1c1c[nH]c2ccccc12 (stereo not given)	> 30	> 30	> 256	> 256	> 256	> 256	> 30	> 30	> 30	> 30	> 256	> 256	> 256	> 256	> 30	> 30	> 30	> 30
O=C(/C=C\c1ccccc1F)N1N=C(c2ccncc2)OC1c1c[nH]c2ccccc12 (stereo not given)	> 30	> 30	26.4 (≈ 64 µM)	> 256	28.8 (≈ 69.8 µM)	202 (≈ 489 µM)	> 30	> 30	> 30	> 30	32 (≈ 77.5 µM)	> 256	25.6 (≈ 62 µM)	> 256	> 30	> 30	> 30	> 30
O=C(/C=C\c1cccc(F)c1)N1N=C(c2ccncc2)OC1c1c[nH]c2ccccc12 (stereo not given)	> 30	> 30	> 256	> 256	> 256	> 256	> 30	> 30	> 30	> 30	> 256	> 256	> 256	> 256	> 30	> 30	> 30	> 30
O=C(/C=C\c1cccc(Cl)c1)N1N=C(c2ccncc2)OC1c1c[nH]c2ccccc12 (stereo not given)	2.54 (≈ 5.92 µM)	> 30	12.1 (≈ 28.3 µM)	> 256	14.5 (≈ 33.9 µM)	> 256	> 30	> 30	> 30	> 30	19.3 (≈ 45 µM)	> 256	14 (≈ 32.6 µM)	> 256	> 30	> 30	> 30	> 30
CC1(C)S[C@@H]2[C@H](NC(=O)[C@H](N)c3ccccc3)C(=O)N2[C@H]1C(=O)O [AMPICILLIN]			1.87 (≈ 5.35 µM)	4.36 (≈ 12.5 µM)	0.42 (≈ 1.2 µM)	1 (≈ 2.86 µM)					3.15 (≈ 9.02 µM)	10.3 (≈ 29.5 µM)	0.086 (≈ 0.246 µM)	1.46 (≈ 4.18 µM)				
NC[C@H]1O[C@H](O[C@H]2[C@H](O)[C@@H](O[C@H]3O[C@H](CO)[C@@H](O)[C@H](N)[C@H]3O)[C@H](N)C[C@@H]2N)[C@H](O)[C@@H](O)[C@@H]1O [KANAMYCIN]			0.014 (≈ 0.0289 µM)	0.49 (≈ 1.01 µM)	> 30	> 33					0.37 (≈ 0.764 µM)	1.35 (≈ 2.79 µM)	0.13 (≈ 0.268 µM)	1.62 (≈ 3.34 µM)				
CC(=O)O[C@H]1C(=O)[C@@]2(C)[C@H]([C@H](OC(=O)c3ccccc3)[C@]3(O)C[C@H](OC(=O)[C@H](O)[C@@H](NC(=O)c4ccccc4)c4ccccc4)C(C)=C1C3(C)C)[C@]1(OC(C)=O)CO[C@@H]1C[C@@H]2O [PACLITAXEL]							0.075 (≈ 0.0878 µM)	0.005 (≈ 0.00586 µM)	5.88 (≈ 6.89 µM)	0.12 (≈ 0.141 µM)							0.0038 (≈ 0.00445 µM)	0.078 (≈ 0.0913 µM)
